Laboratory results published in patent publication US9938240B2, “Fluorinated derivatives of 3-hydroxypyridin-4-ones” (Apotex Technologies Inc., priority 2009, dated 2018).

Assays:
Type in all cases: physicochemical
[1] = pKa determination by spectrophotometric titration; conditions: for pKa: 0.1 M NaCl solution, read-out: pKa (amine); for Logβ011 / Logβ012 / Logβ013: cumulative ligand protonation; for Logβ011 / Logβ012 / Logβ013 / pKa1(L) / pKa2(L) / pKa3(L): Example 53; for pKa1(L) / pKa2(L) / pKa3(L): ligand, spectrophotometric titration
Experimental: The pKa values of ligands can be determined by spectrophotometric titration when both the conjugated acid and base absorb in the UV-visible region. In a typical experiment, the sample solution was prepared by the following method: Apo7041 stock solution (12.74 mg) was weighed into a 10 mL volumetric flask, and 0.1 M NaCl solution was added to volume. The mixture was sonicated and voltexed to give a clear colorless solution. The concentration of Apo7041 of this stock solution is 5.1×10^−3 M.
Apo7041 sample solution: 727 μL of the above stock solution was transferred into a 50 mL volumetric flask by using a 1000 μL digital pipet, and 0.1 M NaCl was added to volume. The resulting solution was vortexed to mix to give a sample solution. The concentration of Apo7041 of this sample solution is 7.4×10^−5 M. 20 mL of the sample solution was transferred into a 35 mL beaker by using a 10 mL digital pipet. The sample solution was circulated between the beaker and the flow cell using a sipper system.
The sample solution was titrated against standard hydrochloric acid solutions at 22° C. to reach pH 1.11. After each addition of acid the solution was allowed to equilibrate until a constant pH reading was reached. The pH and the UV-Vis spectrum were recorded for each measurement. The solution was titrated until there was no obvious change in the spectra after several subsequent additions of acid. Thus, 30 measurements were recorded.
The resulting data set was then analyzed using pHAB (Peter Gans, University of Leeds). The pKa values were obtained using the model: LH+H^+⇄LH2^+, and LH2^++H^+⇄LH3^2+ (pKa3). Thus, Apo7041 has pKa2=3.51, and pKa3=1.23 as determined spectrophotometrically.
The pKa values of Apo7323 were determined by spectrophotometric titration using an Agilent 8453 UV-visible spectroscopy system (see Example 26).

[2] = Fe speciation plot (HySS); conditions: for % FeL2H2 at pH 7.4 / % FeL3 (species 130, neutral/uncharged ferric chelate) at pH 7.4 / % FeL3H2 (species 132) at pH 7.4 / % FeL3H3 (species 133) at pH 7.4 / % FeL3H (species 131) at pH 7.4: Fe:ligand 1:10, [Fe]=1×10^−6 M, [L]=1×10^−5 M
Source text: Example 54 illustrates the speciation distribution of several amino fluorinated derivatives of 3-hydroxypyridin-4-(1H)-ones of the invention. The speciation plot (distribution of ferric chelate species) of two compounds of formula I (Apo7067 and Apo7323) at pH 7.4 is provided in the following table.
(§1) After obtaining three pKa values for Apo7323 (ligand), three pKa values for the Fe-Apo7323 complex, and the log β values for Fe-Apo7323 as shown in the following table, a speciation plot (FIG. 14) was constructed using the HySS software program. pFe was also calculated using the HySS software.

[3] = Stepwise formation constants for Fe-ligand system by titration in 0.1M NaCl; conditions: for pFe^3+: pH 7.4, ligand 10 μM, metal 1 μM, HySS; for K111 / K122 / K133: stepwise constant, Fe-ligand system, Example 53
Experimental: Stepwise formation constants for M^n+-ligand systems were determined by spectrophotometric titration when metal complexes have a strong absorbance in the visible region due to ligand to metal charge transfer.
In a typical experiment, the sample solution was prepared according to the following procedure: compound Apo7041 (12.96 mg) was weighed into a 50 mL volumetric flask, and about 40 mL of 0.1 M NaCl was added. The mixture was sonicated for 10 min to give a clear colorless solution. The iron stock solution (atomic absorption standard, Aldrich, 565 μL, 10.00 μmol) was pipetted into the solution, followed by the addition of 1.000 N NaOH (170 μL). More of the 0.1 M NaCl was added to volume and the resulting solution was vortexed to mix. The molar ratio between the total iron and the total Apo7041 was 1/5.1. The mixture was vortexed at rt for 1 h. 20 mL of the sample solution was transferred into a 35 mL beaker by using a 10 mL digital pipet. The sample solution was circulated between the beaker and the flow cell using a sipper system. The sample solution was titrated against hydrochloric acid solutions at 22° C. until the pH reached 0.021. After each addition of acid, the solution was allowed to equilibrate until a constant pH reading was reached. The pH and the UV-Vis spectrum were recorded for each measurement. For each measurement enough acid was added so that there was a slight decrease in the absorbance of the spectrum. Altogether, 68 measurements were taken to finish the experiment.
The resulting data set was then analyzed using pHAB. The formation constants for Fe-Apo7041 system were optimized using the model shown in the first column of the table.
pM^n+ is defined as −log [M(H2O)m]^n+ at physiological conditions, i.e.: pH 7.4, a ligand concentration of 10 μM, and a metal concentration of 1 μM. To calculate pM^n+ for a MLn system, βn and pKa values are needed (βn are the formation constants for M^n++n L^−⇄MLn; pKa are the equilibrium constants for L^−+n H^+⇄LHn^(n-1)+). The pM^n+ is calculated using the HySS software (HYSS© 2000 Protonic Software).
The log β values of the Fe-Apo7323 system were determined by spectrophotometric titration using an Agilent 8453 UV-visible spectroscopy system (see Example 29B). The sample solution was a mixture of Fe^3+ (2×10^−4 M) and Apo7323 (1×10^−3 M) in 0.1 N NaCl aqueous solvent. The titration data in a pH range of 3.408 to 0.655 were fitted with pHAB using the model shown in FIG. 1 to obtain Log β111, Log β122, and Log β133.
The sample solution was a mixture of Fe^3+ (6×10^−3M) and Apo7323 (1.8×10^−2M) in 0.1 N NaCl aqueous solvent. The titration started at pH 1.72 and ended at pH 11.5 using 3 M NaOH as the titrant. The titration data in a pH range of 3 to 10 were fitted with Hyperquad2000 software using the model:
[drawing 175] where 133 is the species (FeL3H3)^3+, 132 is the species is (FeL3H2)^2+, 131 is the species (FeL3H)^+, and 130 is the species FeL3.
as §1

[4] = spectrophotometric, 0.1 M NaCl, 22° C.
[5] = 0.1 M NaCl, spectrophotometric titration
[6] = 0.1 M NaCl, spectrophotometric titration, fitted

Row | Compound | pKa ([1]; amino group of the ligand) | Log β111 (Fe3+) [3, 5] | Log β122 (Fe3+) [3, 5] | Log β133 (Fe3+) [3, 5] | Logβ011 [1] | Logβ012 [1] | Logβ013 [1] | pKa1(L) [1] | pKa2(L) [1] | pKa3(L) [1] | % FeL2H2 at pH 7.4 [2] [%] | % FeL3H2 (species 132) at pH 7.4 [2] [%] | % FeL3H3 (species 133) at pH 7.4 [2] [%] | % FeL3H (species 131) at pH 7.4 [2] [%] | Log β130 (Fe3+) ([3]; Example 53: Log β131 − pKa1(C)) | Log β131 (Fe3+) ([3]; Example 53: Log β132 − pKa2(C)) | Log β132 (Fe3+) ([3]; Example 53: Log β133 − pKa3(C)) | K111 [3] | K122 [3] | K133 [3] | other results
1 | CN(C)C(c1c(O)c(=O)ccn1C)C(F)(F)F (centres unmarked) [Apo7041, 2-[1-(dimethylamino)-2,2,2-trifluoroethyl]-3-hydroxy-1-methylpyridin-4(1H)-one] | 3.5 | 18.1 | 35.0 | 50.5 |  |  |  |  |  |  |  |  |  |  |  |  |  |  |  |  | pKa (amine) ([1]; amino group of the ligand): 3.51; pKa2 [1, 4]: 3.51; pKa3 [1, 4]: 1.23; pH from which the FeL3 chelate is stable ([2]; speciation plot FIG. 5): ≥ 5; Log β130 (Fe3+) ([3]; 0.1 M NaCl, fitted): 38.8; Log β131 (Fe3+) [3, 6]: 44.5; Log β132 (Fe3+) [3, 6]: 48.3; pFe^3+ [3]: pFe^3+ = 23.4
2 | CNC(c1cn(C)c(C)c(O)c1=O)C(F)(F)F (centres unmarked) [Apo7056, 3-Hydroxy-1,2-dimethyl-5-[2,2,2-trifluoro-1-(methylamino)ethyl]pyridin-4(1H)-one] |  | 18.7 | 35.9 | 51.5 | 9.8 | 14.7 | 15.1 | 9.8 | 4.9 | 0.4 | 0.0 | 0.0 | 0.0 | 2.40 | 36.5 | 42.3 | 47.3 | 18.7 | 17.2 | 15.6 | % FeL3 (species 130, neutral/uncharged ferric chelate) at pH 7.4 [2]: 97.5%
3 | CN(C)Cc1c(O)c(=O)ccn1CC(F)(F)F [Apo7067, 2-[(dimethylamino)methyl]-3-hydroxy-1-(2,2,2-trifluoroethyl)pyridin-4(1H)-one] | 6.1 | 20.0 | 38.7 | 55.7 | 9.6 | 15.7 | 16.5 | 9.6 | 6.1 | 0.8 |  | 24.6 | 1.2 | 61.8 | 34.5 | 42.6 | 49.6 | 20.0 | 18.7 | 17.0 | 
4 | O=c1ccn(CC(F)(F)F)c(CN2CCOCC2)c1O [Apo7323, 3-hydroxy-2-(morpholinomethyl)-1-(2,2,2-trifluoroethyl)pyridin-4(1H)-one] | 4.2 | 18.4 | 34.9 | 50.1 | 9.2 | 13.4 | 14.2 | 9.2 | 4.2 | 0.8 | 0.0 | 0.0 | 0.0 | 3.1 | 35.7 | 41.6 | 46.2 | 18.4 | 16.5 | 15.1 | 
5 | Cc1c(O)c(=O)c(C(N2CCOCC2)C(F)(F)F)cn1C (centres unmarked) [Apo7435, 3-hydroxy-1,2-dimethyl-5-(2,2,2-trifluoro-1-morpholinoethyl)pyridin-4(1H)-one] | 2.5 | 15.9 | 30.4 | 44.8 | 9.8 | 12.3 | 12.3 | 9.8 | 2.5 | 0.0 | 0.0 | 0.0 | 0.0 | 0.00 | 35.6 | 39.6 | 42.7 | 15.9 | 14.5 | 14.4 | % FeL3 (species 130, neutral/uncharged ferric chelate) at pH 7.4 [2]: 100%
6 | Cc1c(O)c(=O)ccn1C [Deferiprone, 3-hydroxy-1,2-dimethylpyridin-4(1H)-one, reference compound] |  |  |  |  |  |  |  |  |  |  |  |  |  |  |  |  |  |  |  |  | % FeL3 (species 130, neutral/uncharged ferric chelate) at pH 7.4 [2]: ~100%; Log β130 (Fe3+) ([3]; 0.1 M NaCl, fitted, listed as deferiprone): 37.24; Log β130 (Fe3+) ([3]; 0.1 M NaCl, fitted, listed as drawing 103): Logβ130 = 37.24; Logβ110 (Fe3+) ([3]; 0.1M aqueous NaCl): Logβ110 = 14.85; Logβ120 (Fe3+) ([3]; 0.1M aqueous NaCl): Logβ120 = 27.25; pFe^3+ [3]: pFe^3+ = 20.2
